According to patent US7109193B2, “Tricyclic diazepines tocolytic oxytocin receptor antagonists” (Wyeth, priority 2001, dated 2006):

Target: T1, human oxytocin receptor (Homo sapiens, UniProt P30559)
T1 construct: host or cells: CHO cells (pcDNA3.1 vector)
T1 sequence (P30559 1-389): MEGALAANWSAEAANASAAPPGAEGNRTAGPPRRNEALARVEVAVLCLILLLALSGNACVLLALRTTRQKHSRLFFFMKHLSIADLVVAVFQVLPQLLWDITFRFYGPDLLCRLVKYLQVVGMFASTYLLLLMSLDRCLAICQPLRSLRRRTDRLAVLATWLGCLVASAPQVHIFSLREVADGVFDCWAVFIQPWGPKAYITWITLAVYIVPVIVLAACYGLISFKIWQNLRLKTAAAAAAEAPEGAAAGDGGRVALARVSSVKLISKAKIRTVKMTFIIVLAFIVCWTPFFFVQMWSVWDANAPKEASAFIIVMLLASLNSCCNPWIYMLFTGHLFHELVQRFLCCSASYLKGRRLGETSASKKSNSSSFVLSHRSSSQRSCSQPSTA
Assay: Oxytocin binding in Chinese Hamster Ovary cell membranes expressing human oxytocin receptors
Details: 100 nM, CHO cell membranes, [3H]oxytocin, values without parentheses, read-out: OT % inhibition @ 100% nM

Structure (SMILES) | inhibition at 0.1 µM
COc1cc(C(=O)N2Cc3ccc(C(=O)N4CCN(CCN(C)C)CC4)n3Cc3ccccc32)ccc1-c1cccc2ccccc12 [Example 203, {4-[2-(Dimethylamino)ethyl]-1-piperazinyl}{10-[3-methoxy-4-(1-naphthyl)benzoyl]-10,11-dihydro-5H-pyrrolo[2,1-c][1,4]benzodiazepin-3-yl}methanone] | 62%
COc1cc(C(=O)N2Cc3ccc(C(=O)N(C)C4CCN(C)C4)n3Cc3ccccc32)ccc1-c1cccc2ccccc12 (stereo not shown) [Example 192, 10-[3-Methoxy-4-(1-naphthyl)benzoyl]-N-methyl-N-(1-methyl-3-pyrrolidinyl)-10,11-dihydro-5H-pyrrolo[2,1-c][1,4]benzodiazepine-3-carboxamide] | 91%
COc1cccc(-c2cc(OC)c(C(=O)N3Cc4ccc(C(=O)N(C)C5CCN(C)CC5)n4Cc4ccccc43)cc2Cl)c1 [Example 181, 10-[(6-Chloro-3,3′-dimethoxy[1,1′-biphenyl]-4-yl)carbonyl]-N-methyl-N-(1-methyl4-piperidinyl)-10,11-dihydro-5H-pyrrolo[2,1-c][1,4]benzodiazepine-3-carboxamide] | 100%
C=CCN1CCN(C(=O)c2ccc3n2Cc2ccccc2N(C(=O)c2ccc(-c4ccccc4C(F)(F)F)c(C)c2)C3)CC1 [Example 230, (4-Allyl-1-piperazinyl)(10-{[2-methyl-2′-(trifluoromethyl)[1,1′-biphenyl]-4-yl]carbonyl}-10,11-dihydro-5H-pyrrolo[2,1-c][1,4]benzodiazepin-3-yl)methanone] | 67%
C=CCN1CCN(C(=O)c2ccc3n2Cc2ccccc2N(C(=O)c2ccc(-c4ccccc4C)cc2)C3)CC1 [Example 224, (4-Allyl-1-piperazinyl){10-[(2′-methyl[1,1′-biphenyl]-4-yl)carbonyl]-10,11-dihydro-5H -pyrrolo[2,1-c][1,4]benzodiazepin-3-yl}methanone] | -3%
COc1ccccc1-c1ccc(C(=O)N2Cc3ccc(C(=O)NCCC4CCCN4C)n3Cc3ccccc32)cc1 (stereo not shown) [Example 165, 10-[(2′-Methoxy[1,1′-biphenyl]-4-yl)carbonyl]-N-[2-(1-methyl-2-pyrrolidinyl)ethyl]-10,11-dihydro-5H-pyrrolo[2,1-c][1,4]benzodiazepine-3-carboxamide] | 64%
COc1cc(C(=O)N2Cc3ccc(C(=O)N4CCN(C(C)C)CC4)n3Cc3ccccc32)ccc1-c1ccccc1C [Example 237, (4-isopropyl-1-piperazinyl){10-[(2-methoxy-2′-methyl[1,1′-biphenyl]-4-yl)carbonyl]-10,11-dihydro-5H-pyrrolo[2,1-c][1,4]benzodiazepin-3-yl}methanone] | 79%
